Test results published in US11098010B2 (priority 2017, dated 2021).

tested on: HBV rcDNA in HepDE19 cells; test: HepDE19 assay with bDNA quantitation of HBV rcDNA; format: cell-based, hepatitis B virus (HBV); details: HepDE19 cells, inhibition of rcDNA formation, 7 day incubation, top concentration 25 μM; read-out: DE-19 bDNA EC50
Procedure: HepDE19 Assay with bDNA Quantitation of HBV rcDNA:
HepDE19 cell culture system is a HepG2 (human hepatocarcinoma) derived cell line that supports HBV DNA replication and cccDNA formation in a tetracycline (Tet)-regulated manner and produces HBV rcDNA and a detectable reporter molecule dependent on the production and maintenance of cccDNA (Guo, et al., 2007, J. Virol. 81:12472-12484).
HepDE19 (50,000 cells/well) were plated in 96-well collagen-coated tissue-culture treated microtiter plates in DMEM/F12 medium supplemented with 10% fetal bovine serum, 1% penicillin-streptomycin and 1 μg/mL tetracycline and incubated in a humidified incubator at 37° C. and 5% CO2 overnight. Next day, the cells were switched to fresh medium without tetracycline and incubated for 4 hours at 37° C. and 5% CO2. The cells were treated with fresh Tet-free medium with compounds at concentrations starting at 25 μM and a serial, ½ log, 8-point, titration series in duplicate. The final DMSO concentration in the assay was 0.5%. The plates were incubated for 7 days in a humidified incubator at 37° C. and 5% CO2. Following a 7 day-incubation, the level of rcDNA present in the inhibitor-treated wells was measured using a Quantigene 2.0 bDNA assay kit (Affymetrix, Santa Clara, Calif.) with HBV specific custom probe set and manufacturers instructions. Concurrently, the effect of compounds on cell viability was assessed using replicate plates, plated at a density of 5,000 cells/well and incubated for 4 days, to determine the ATP content as a measure of cell viability using the cell-titer glo reagent (CTG; Promega Corporation, Madison, Wis.) as per manufacturer's instructions. The plates were read using a Victor luminescence plate reader (PerkinElmer Model 1420 Multilabel counter) and the relative luminescence units (RLU) data generated from each well was calculated as % inhibition of the untreated control wells and analyzed using XL-Fit module in Microsoft Excel to determine EC50 and EC90 (bDNA) and CC50 (CTG) values using a 4-parameter curve fitting algorithm.
Representative compounds of the invention were tested for their abilities to inhibit formation of relaxed circular DNA (rcDNA) in a HepDE19 assay, as described elsewhere herein.

| Compound | EC50 |
| --- | --- |
| O=C(NC1CSc2c(C(=O)Nc3ccc(F)c(Cl)c3)cccc21)OCc1ccccn1 (centres unmarked) [Compound 35, O-Pyridin-2-ylmethyl, N-(7-((3-chloro-4-fluorophenyl)carbamoyl)-2,3-dihydrobenzo[b]thiophen-3-yl) carbamate] | 0.78 µM |
| O=C(NC1CSc2c(C(=O)Nc3ccc(F)c(Cl)c3)cccc21)OCc1ccccn1 (centres unmarked) [Compound 36, O-Pyridin-2-ylmethyl, N-(7-((3-chloro-4-fluorophenyl)carbamoyl)-2,3-dihydrobenzo[b]thiophen-3-yl) carbamate] | > 25 µM |

same assay, conditions: Hepatitis B virus, HepDE19, 168 h, HepDE19 cells, inhibition of rcDNA formation, 7 day incubation, top concentration 25 μM; read-out: DE-19 bDNA EC50

| Compound | EC50 |
| --- | --- |
| O=C(N[C@H]1CCc2c(C(=O)Nc3ccc(F)c(Cl)c3)ccc(F)c21)OCc1ccccn1 [Compound 32, O-Pyridin-2-ylmethyl, N—(S)-(4-((3-chloro-4-fluorophenyl)carbamoyl)-7-fluoro-2,3-dihydro-1H-inden-1-yl) carbamate] | 0.11 µM |
| CN1C(=O)CC[C@H]1COC(=O)N[C@H]1CCc2c(C(=O)Nc3ccc(F)c(Cl)c3)ccc(F)c21 [Compound 39] | 0.6 µM |
| Cc1cc(NC(=O)c2ccc(F)c3c2CC[C@@H]3NC(=O)OCc2ccccn2)ccc1F [Compound 40, O-Pyridin-2-ylmethyl, N—(S)-(7-fluoro-4-((4-fluoro-3-methylphenyl)carbamoyl)-2,3-dihydro-1H-inden-1-yl) carbamate] | 0.62 µM |
| O=C(N[C@H]1CCc2c(C(=O)Nc3ccc(F)c(Cl)c3)ccc(F)c21)OCc1cn2ccccc2n1 [Compound 41, O-Imidazo[1,2-a]pyridin-2-ylmethyl, N—(S)-(4-((3-chloro-4-fluorophenyl)carbamoyl)-7-fluoro-2,3-dihydro-1H-inden-1-yl) carbamate] | 0.16 µM |

same assay, conditions: Hepatitis B virus, HepDE19, 168 h, read-out: DE-19 bDNA EC50 (μM), HepDE19 cells, inhibition of rcDNA formation, 7 day incubation, top concentration 25 μM

| Compound | EC50 |
| --- | --- |
| COC(=O)NC1CSc2c(C(=O)Nc3ccc(F)c(Cl)c3)cccc21 (centres unmarked) [Compound 37, O-Methyl, N-(7-((3-chloro-4-fluorophenyl)carbamoyl)-2,3-dihydrobenzo[b]thiophen-3-yl) carbamate] | 0.95 µM |
| O=C(N[C@H]1CCc2c(C(=O)Nc3ccc(F)c(Cl)c3)ccc(F)c21)OCc1cccc(N2CCOCC2)n1 [Compound 42, O-(6-Morpholinopyridin-2-yl)methyl, N—(S)-(4-((3-chloro-4-fluorophenyl)carbamoyl)-7-fluoro-2,3-dihydro-1H-inden-1-yl) carbamate] | 0.27 µM |
| CN1C(=O)CC[C@@H]1COC(=O)N[C@H]1CCc2c(C(=O)Nc3ccc(F)c(Cl)c3)ccc(F)c21 [Compound 43] | 0.54 µM |
| COc1cccc(COC(=O)N[C@H]2CCc3c(C(=O)Nc4ccc(F)c(Cl)c4)ccc(F)c32)n1 [Compound 44, O-(6-Methoxypyridin-2-yl)methyl, N—(S)-(4-((3-chloro-4-fluorophenyl)carbamoyl)-7-fluoro-2,3-dihydro-1H-inden-1-yl) carbamate] | 0.38 µM |
| O=C(Nc1ccc(F)c(Cl)c1)c1ccc(F)c2c1CC[C@@H]2Nc1ncccn1 [Compound 45, (S)—N-(3-chloro-4-fluorophenyl)-7-fluoro-1-(pyrimidin-2-ylamino)-2,3-dihydro-1H-indene-4-carboxamide] | 0.25 µM |
| COC(=O)N[C@@H]1c2cccc(C(=O)Nc3ccc(F)c(Cl)c3)c2C[C@H]1O [Compound 46, O-Methyl, N-((1R,2R)-4-((3-chloro-4-fluorophenyl)carbamoyl)-2-hydroxy-2,3-dihydro-1H-inden-1-yl) carbamate] | 0.7 µM |
| CNC(=O)N[C@@H]1c2cccc(C(=O)Nc3ccc(F)c(Cl)c3)c2C[C@H]1O [Compound 47, (1R,2R)—N-(3-Chloro-4-fluorophenyl)-2-hydroxy-1-(3-methylureido)-2,3-dihydro-1H-indene-4-carboxamide] | 11 µM |
| CN(C)c1cccc(COC(=O)N[C@H]2CCc3c(C(=O)Nc4ccc(F)c(Cl)c4)ccc(F)c32)n1 [Compound 48, O-(6-(Dimethylamino)pyridin-2-yl)methyl, N—(S)-(4-((3-chloro-4-fluorophenyl)carbamoyl)-7-fluoro-2,3-dihydro-1H-inden-1-yl) carbamate] | 0.16 µM |
